# Assay results published in ChEMBL document CHEMBL1201862, “PubChem BioAssay data set” (2004).
#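 Step 1: Grow cells in 96-well plates. Step 2: Expose to compound for 48 hours at 5 concentrations. Step 3: Interpolate endpoints linearly; if unreached, use highest concentration. The concentration for 50% growth inhibition is given as GI50.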 Calls of active or inactive are those of the source. No stated cut-off is given here; in the data, active = GI50 up to about 1.1 µM and inactive = higher.
# Key:
# Assay in all cases: DTP human tumour cell line panel, 48 h
# M14 = tested on: M14
# CCRF-CEM = tested on: CCRF-CEM
# HCC 2998 = tested on: HCC 2998
# OVCAR-5 = tested on: OVCAR-5
# LXFL 529 = tested on: LXFL 529
# HCT-15 = tested on: HCT-15
# EKVX = tested on: EKVX
# NCI-H23 = tested on: NCI-H23
# SW-620 = tested on: SW-620
# TK-10 = tested on: TK-10
# KM-20L2 = tested on: KM-20L2
# NCI-H460 = tested on: NCI-H460
# HT-29 = tested on: HT-29
# 786-0 = tested on: 786-0
# RXF 393 = tested on: RXF 393
# SN12C = tested on: SN12C
# A498 = tested on: A498
# OVCAR-3 = tested on: OVCAR-3
# SK-MEL-2 = tested on: SK-MEL-2
# SR = tested on: SR
# U-251 = tested on: U-251
# SF-295 = tested on: SF-295
# RXF 631 = tested on: RXF 631
# ACHN = tested on: ACHN
# SF-539 = tested on: SF-539
# RPMI-8226 = tested on: RPMI-8226
# DMS-114 = tested on: DMS-114
# SNB-78 = tested on: SNB-78
# OVCAR-4 = tested on: OVCAR-4
# M19-MEL = tested on: M19-MEL
# MOLT-4 = tested on: MOLT-4
# HOP-92 = tested on: HOP-92
# NCI-H226 = tested on: NCI-H226
# K562 = tested on: K562
# Malme-3M = tested on: Malme-3M
# A549 = tested on: A549
# SNB-75 = tested on: SNB-75
# KM12 = tested on: KM12
# UACC-62 = tested on: UACC-62
# SK-OV-3 = tested on: SK-OV-3
# DLD-1 = tested on: DLD-1
# SF-268 = tested on: SF-268
# SNB-19 = tested on: SNB-19
# UACC-257 = tested on: UACC-257
# SK-MEL-28 = tested on: SK-MEL-28
# OVCAR-8 = tested on: OVCAR-8
# HOP-18 = tested on: HOP-18
# HOP-62 = tested on: HOP-62
# SK-MEL-5 = tested on: SK-MEL-5
# UO-31 = tested on: UO-31
# LOX IMVI = tested on: LOX IMVI
# XF498 = tested on: XF498
# NCI-H522 = tested on: NCI-H522
# HL-60 = tested on: HL-60
# IGROV-1 = tested on: IGROV-1
# COLO 205 = tested on: COLO 205
# CAKI-1 = tested on: CAKI-1
# DMS-273 = tested on: DMS-273
# HCT-116 = tested on: HCT-116
smiles,measurement,setting,value
N#Cc1cccnc1Cl,GI50,M14,> 100 µM (inactive)
same,GI50,CCRF-CEM,> 100 µM (inactive)
same,GI50,HCC 2998,> 100 µM (inactive)
same,GI50,OVCAR-5,> 100 µM (inactive)
same,GI50,LXFL 529,> 100 µM (inactive)
same,GI50,HCT-15,> 100 µM
same,GI50,EKVX,> 100 µM (inactive)
same,GI50,NCI-H23,> 100 µM (inactive)
same,GI50,SW-620,> 100 µM (inactive)
same,GI50,TK-10,> 100 µM (inactive)
same,GI50,KM-20L2,> 100 µM (inactive)
same,GI50,NCI-H460,> 100 µM (inactive)
same,GI50,HT-29,> 100 µM (inactive)
same,GI50,786-0,> 100 µM (inactive)
same,GI50,RXF 393,> 100 µM (inactive)
same,GI50,SN12C,> 100 µM (inactive)
same,GI50,A498,> 100 µM (inactive)
same,GI50,OVCAR-3,> 100 µM (inactive)
same,GI50,SK-MEL-2,> 100 µM (inactive)
same,GI50,SR,> 100 µM (inactive)
same,GI50,U-251,> 100 µM (inactive)
same,GI50,SF-295,> 100 µM (inactive)
same,GI50,RXF 631,> 100 µM (inactive)
same,GI50,ACHN,> 100 µM (inactive)
same,GI50,SF-539,> 100 µM (inactive)
same,GI50,RPMI-8226,> 100 µM (inactive)
same,GI50,DMS-114,> 100 µM (inactive)
same,GI50,SNB-78,> 83.4 µM (inactive)
same,GI50,OVCAR-4,> 100 µM (inactive)
same,GI50,M19-MEL,> 100 µM (inactive)
same,GI50,MOLT-4,> 100 µM (inactive)
same,GI50,HOP-92,> 100 µM (inactive)
same,GI50,NCI-H226,> 100 µM (inactive)
same,GI50,K562,> 100 µM (inactive)
same,GI50,Malme-3M,> 100 µM (inactive)
same,GI50,A549,> 100 µM (inactive)
same,GI50,SNB-75,> 76.6 µM (inactive)
same,GI50,KM12,> 100 µM (inactive)
same,GI50,UACC-62,> 100 µM (inactive)
same,GI50,SK-OV-3,> 100 µM (inactive)
same,GI50,DLD-1,> 100 µM (inactive)
same,GI50,SF-268,> 100 µM (inactive)
same,GI50,SNB-19,> 100 µM (inactive)
same,GI50,UACC-257,> 100 µM (inactive)
same,GI50,SK-MEL-28,> 100 µM (inactive)
same,GI50,OVCAR-8,> 100 µM (inactive)
same,GI50,HOP-18,> 100 µM (inactive)
same,GI50,HOP-62,> 31.6 µM (inactive)
same,GI50,SK-MEL-5,> 100 µM (inactive)
same,GI50,UO-31,> 100 µM (inactive)
same,GI50,LOX IMVI,> 100 µM (inactive)
same,GI50,XF498,> 100 µM (inactive)
same,GI50,NCI-H522,> 100 µM (inactive)
same,GI50,HL-60,> 100 µM (inactive)
same,GI50,IGROV-1,> 100 µM (inactive)
same,GI50,COLO 205,> 100 µM (inactive)
same,GI50,CAKI-1,> 100 µM (inactive)
same,GI50,DMS-273,> 100 µM (inactive)
O=C(/C=C/c1ccccc1O)c1ccc([N+](=O)[O-])cc1,GI50,M14,20.9 µM (inactive)
same,GI50,CCRF-CEM,15.8 µM (inactive)
same,GI50,HCC 2998,16.5 µM (inactive)
same,GI50,OVCAR-5,22.1 µM (inactive)
same,GI50,LXFL 529,13.4 µM (inactive)
same,GI50,HCT-15,17 µM
same,GI50,EKVX,10.6 µM (inactive)
same,GI50,NCI-H23,11.3 µM (inactive)
same,GI50,SW-620,16.6 µM (inactive)
same,GI50,TK-10,26.7 µM (inactive)
same,GI50,KM-20L2,18.8 µM (inactive)
same,GI50,NCI-H460,22.7 µM (inactive)
same,GI50,HT-29,19.9 µM (inactive)
same,GI50,786-0,17.3 µM (inactive)
same,GI50,RXF 393,11 µM (inactive)
same,GI50,SN12C,15.5 µM (inactive)
same,GI50,A498,20.8 µM (inactive)
same,GI50,OVCAR-3,12.4 µM (inactive)
same,GI50,SK-MEL-2,19.8 µM (inactive)
same,GI50,SR,19.4 µM (inactive)
same,GI50,HCT-116,15.6 µM (inactive)
same,GI50,U-251,14.6 µM (inactive)
same,GI50,SF-295,21.7 µM (inactive)
same,GI50,RXF 631,18.7 µM (inactive)
same,GI50,ACHN,11.9 µM (inactive)
same,GI50,SF-539,15.4 µM (inactive)
same,GI50,DMS-114,10.3 µM (inactive)
same,GI50,SNB-78,20.9 µM (inactive)
same,GI50,OVCAR-4,12 µM (inactive)
same,GI50,M19-MEL,18.4 µM (inactive)
same,GI50,MOLT-4,22.3 µM (inactive)
same,GI50,HOP-92,26.6 µM (inactive)
same,GI50,NCI-H226,18 µM (inactive)
same,GI50,K562,20.9 µM (inactive)
same,GI50,Malme-3M,44 µM (inactive)
same,GI50,A549,22.5 µM (inactive)
same,GI50,SNB-75,7.8 µM (inactive)
same,GI50,KM12,18.5 µM (inactive)
same,GI50,UACC-62,14.7 µM (inactive)
same,GI50,SK-OV-3,26.8 µM (inactive)
same,GI50,DLD-1,12.9 µM (inactive)
same,GI50,SF-268,18 µM (inactive)
same,GI50,SNB-19,16.6 µM (inactive)
same,GI50,UACC-257,53.3 µM (inactive)
same,GI50,SK-MEL-28,16.1 µM (inactive)
same,GI50,OVCAR-8,15.5 µM (inactive)
same,GI50,HOP-18,30.1 µM (inactive)
same,GI50,HOP-62,16.4 µM (inactive)
same,GI50,SK-MEL-5,20.1 µM (inactive)
same,GI50,UO-31,19.1 µM (inactive)
same,GI50,LOX IMVI,15.8 µM (inactive)
same,GI50,XF498,16.9 µM (inactive)
same,GI50,NCI-H522,17.3 µM (inactive)
same,GI50,HL-60,16.4 µM (inactive)
same,GI50,IGROV-1,12.9 µM (inactive)
same,GI50,COLO 205,12.5 µM (inactive)
same,GI50,CAKI-1,18.5 µM (inactive)
same,GI50,DMS-273,15.2 µM (inactive)
